Patent US20090069320A1, “Substituted 4-Amino-Quinazoline Compounds with Metabotropic Glutamate Receptor Regulating Activity and Uses Thereof” (Gruenenthal GmbH, priority 2006, published 2009)
Counter-ions that a name gives are not always drawn.

target: T1, mGluR5 receptor (Sus scrofa, UniProt I3LUI7); assay: [3H]-MPEP mGluR5 receptor binding assay (pig brain homogenate); details: 5 nM [3H]-MPEP, read-out: IC50 mGluR5 Receptor (pig) [^3H]-MPEP Bond
T1 construct: 450 μg of protein from brain homogenate with 5 nM ^3[H]-MPEP; from tissue; host or cells: pig brain halves without medulla, cerebellum and pons
Procedure, shortened: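 Radioligand displacement of 5 nM [3H]-MPEP from pig brain homogenate (450 μg protein; medulla, cerebellum and pons removed) in 20 mM Hepes pH 8.0. Compounds were tested at 10 μM, incubated 60 min at room temperature, then filtered and counted by scintillation. Non-specific binding was defined with 10 μM MPEP.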

T1 sequence (I3LUI7 19-1212): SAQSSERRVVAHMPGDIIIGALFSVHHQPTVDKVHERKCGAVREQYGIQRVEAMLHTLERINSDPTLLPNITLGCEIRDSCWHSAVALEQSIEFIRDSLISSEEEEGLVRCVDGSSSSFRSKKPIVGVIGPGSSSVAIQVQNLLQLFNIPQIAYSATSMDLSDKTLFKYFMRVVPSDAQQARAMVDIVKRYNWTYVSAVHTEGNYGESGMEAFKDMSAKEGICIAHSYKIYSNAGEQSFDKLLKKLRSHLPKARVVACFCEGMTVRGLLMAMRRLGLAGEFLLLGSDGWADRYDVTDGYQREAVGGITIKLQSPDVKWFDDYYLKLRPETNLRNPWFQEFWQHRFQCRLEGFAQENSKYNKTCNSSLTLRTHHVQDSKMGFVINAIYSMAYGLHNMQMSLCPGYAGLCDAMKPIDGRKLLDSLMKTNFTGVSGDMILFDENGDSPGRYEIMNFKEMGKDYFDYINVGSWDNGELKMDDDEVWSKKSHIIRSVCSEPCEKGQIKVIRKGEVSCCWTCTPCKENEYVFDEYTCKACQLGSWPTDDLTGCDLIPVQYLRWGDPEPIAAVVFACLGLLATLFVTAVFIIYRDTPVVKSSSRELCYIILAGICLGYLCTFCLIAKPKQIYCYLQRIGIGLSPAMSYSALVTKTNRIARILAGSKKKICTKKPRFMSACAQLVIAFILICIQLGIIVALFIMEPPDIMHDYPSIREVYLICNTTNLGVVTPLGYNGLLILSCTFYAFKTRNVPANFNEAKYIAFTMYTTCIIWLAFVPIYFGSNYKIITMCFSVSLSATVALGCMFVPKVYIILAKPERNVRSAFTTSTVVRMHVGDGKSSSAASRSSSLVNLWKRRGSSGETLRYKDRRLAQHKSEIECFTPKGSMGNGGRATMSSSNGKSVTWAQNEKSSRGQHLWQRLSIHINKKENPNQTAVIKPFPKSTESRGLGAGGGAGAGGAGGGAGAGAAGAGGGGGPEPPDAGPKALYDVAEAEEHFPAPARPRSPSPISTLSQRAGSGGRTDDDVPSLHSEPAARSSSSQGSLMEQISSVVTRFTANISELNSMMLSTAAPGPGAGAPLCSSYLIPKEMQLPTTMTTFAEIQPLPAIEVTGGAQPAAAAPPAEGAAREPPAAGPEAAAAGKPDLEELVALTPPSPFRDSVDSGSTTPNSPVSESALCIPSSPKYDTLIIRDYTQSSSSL

**Q.** For CC(C)Nc1ncnc2ccc(-c3cccc(CN4C(=O)CCC4=O)c3)cc12 [Example 873, 1-(3-(4-(isopropylamino)quinazolin-6-yl)benzyl)pyrrolidine-2,5-dione hydrochloride], which IC50 is on record?
**A.** 80 nM

**Q.** CN1CCN(Cc2cccc(-c3ccc4ncnc(NC5CC5)c4c3)c2)C1=O [Example 877, 1-(3-(4-(cyclopropylamino)quinazolin-6-yl)benzyl)-3-methylimidazolidin-2-one] was tested. Which IC50 did it give?
**A.** 9570 nM

**Q.** Which IC50 does the source give for CC(=O)N(Cc1cccc(-c2ccc3ncnc(NC4CC4)c3c2)c1)C(C)=O [Example 879, N-acetyl-N-(3-(4-(cyclopropylamino)quinazolin-6-yl)benzyl)acetamide] here?
**A.** 1660 nM

**Q.** How did the IC50 turn out when O=C1CCC(=O)N1Cc1cccc(-c2ccc3ncnc(N4CCCC4)c3c2)c1 [Example 880, 1-(3-(4-(pyrrolidin-1-yl)quinazolin-6-yl)benzyl)pyrrolidine-2,5-dione] was run?
**A.** 4300 nM

**Q.** Which IC50 does the source give for O=C1CCC(=O)N1Cc1cccc(-c2cc(Cl)c3ncnc(NC4CC4)c3c2)c1 [Example 881, 1-(3-(8-chloro-4-(cyclopropylamino)quinazolin-6-yl)benzyl)pyrrolidine-2,5-dione] here?
**A.** 20 nM

**Q.** O=C1CCC(=O)N1Cc1cccc(-c2cc(C(F)(F)F)c3ncnc(NC4CC4)c3c2)c1 [Example 883, 1-(3-(4-(cyclopropylamino)-8-(trifluoromethyl)quinazolin-6-yl)benzyl)pyrrolidine-2,5-dione] was tested. Which IC50 did it give?
**A.** 20 nM

**Q.** How did the IC50 turn out when Cc1cc2ncnc(NC3CC3)c2cc1-c1cccc(CN2C(=O)CCC2=O)c1 [Example 884, 1-(3-(4-(cyclopropylamino)-7-methylquinazolin-6-yl)benzyl)pyrrolidine-2,5-dione] was run?
**A.** 130 nM

**Q.** For CC1CCC(=O)N1Cc1cccc(-c2ccc3ncnc(NC4CC4)c3c2)c1 (centres unmarked) [Example 885, 1-(3-(4-(cyclopropylamino)quinazolin-6-yl)benzyl)-5-methylpyrrolidine-2-one], which IC50 is on record?
**A.** 400 nM

**Q.** For C=CCN(Cc1cccc(-c2ccc3ncnc(NC4CC4)c3c2)c1)C(C)=O [Example 886, N-allyl-N-(3-(4-(cyclopropylamino)quinazolin-6-yl)benzyl)acetamide], which IC50 is on record?
**A.** 1980 nM

**Q.** CCCN(Cc1cccc(-c2ccc3ncnc(NC4CC4)c3c2)c1)C(C)=O [Example 887, N-(3-(4-(cyclopropylamino)quinazolin-6-yl)benzyl)-N-propylacetamide hydrochloride] was tested. Which IC50 did it give?
**A.** 3100 nM

**Q.** For c1ccc(N(Cc2cccc(-c3ccc4ncnc(NC5CC5)c4c3)c2)C2CC2)nc1 [Example 888, N-cyclopropyl-6-(3-((cyclopropyl(pyridin-2-yl)amino)methyl)phenyl)quinazoline-4-amine], which IC50 is on record?
**A.** 2650 nM

**Q.** For O=C1CCC(=O)N1Cc1cc(F)cc(-c2ccc3ncnc(NC4CC4)c3c2)c1 [Example 889, 1-(3-(4-(cyclopropylamino)quinazolin-6-yl)-5-fluorobenzyl)pyrrolidine-2,5-dione], which IC50 is on record?
**A.** 500 nM

**Q.** For CC(=O)N(Cc1cccc(-c2ccc3ncnc(NC4CC4)c3c2)n1)C1CC1 [Example 890, N-cyclopropyl-N-((6-(4-(cyclopropylamino)quinazolin-6-yl)pyridin-2-yl)methyl)acetamide], which IC50 is on record?
**A.** 4620 nM

**Q.** With CN(Cc1cccc(-c2ccc3ncnc(NC4CC4)c3c2)c1)C1CC1 [Example 891, N-cyclopropyl-6-(3-((cyclopropyl(methyl)amino)methyl)phenyl)quinazoline-4-amine] as the molecule, how does the IC50 read?
**A.** 5600 nM

**Q.** For c1cc(CN(c2nccs2)C2CC2)cc(-c2ccc3ncnc(NC4CC4)c3c2)c1 [Example 892, N-cyclopropyl-N-(3-(4-(cyclopropylamino)quinazolin-6-yl)benzyl)thiazole-2-amine], which IC50 is on record?
**A.** 80 nM

**Q.** Which IC50 does the source give for CC(=O)N(Cc1cccc(-c2ccc3ncnc(NC4CC4)c3c2)c1)C1CCC1 [Example 893, N-cyclobutyl-N-(3-(4-(cyclopropylamino)quinazolin-6-yl)benzyl)acetamide] here?
**A.** 3210 nM

**Q.** Which IC50 does the source give for CCN(Cc1cccc(-c2ccc3ncnc(NC4CC4)c3c2)c1)C(C)=O [Example 894, N-(3-(4-(cyclopropylamino)quinazolin-6-yl)benzyl)-N-ethylacetamide] here?
**A.** 1000 nM

**Q.** With CC(=O)N(Cc1cc(F)cc(-c2ccc3ncnc(NC4CC4)c3c2)c1)C1CC1 [Example 897, N-cyclopropyl-N-(3-(4-(cyclopropylamino)quinazolin-6-yl)-5-fluorobenzyl)acetamide] as the molecule, how does the IC50 read?
**A.** 20 nM

**Q.** Which IC50 does the source give for COC(=O)N(Cc1cccc(-c2ccc3ncnc(NC4CC4)c3c2)c1)C1CC1 [Example 898, methyl cyclopropyl(3-(4-(cyclopropylamino)quinazolin-6-yl)benzyl)carbamate] here?
**A.** 90 nM

**Q.** With COc1cc2ncnc(NC3CC3)c2cc1-c1cccc(CN2C(=O)CCC2=O)c1 [Example 899, 1-(3-(4-(cyclopropylamino)-7-methoxyquinazolin-6-yl)benzyl)pyrrolidine-2,5-dione] as the molecule, how does the IC50 read?
**A.** 160 nM

**Q.** How did the IC50 turn out when O=C1CCC(=O)N1Cc1cccc(-c2ccc3ncnc(NC4CC4)c3c2F)c1 [Example 904, 1-(3-(4-(cyclopropylamino)-5-fluoroquinazolin-6-yl)benzyl)pyrrolidine-2,5-dione] was run?
**A.** 220 nM

same assay, conditions: 10 μM compound, 5 nM [3H]-MPEP, read-out: % Inhibition of mGluR5 Receptor (pig) [^3H]-MPEP Bond at 10 μM

**Q.** With c1cc(Cn2cccc2)cc(-c2ccc3ncnc(NC4CC4)c3c2)c1 [Example 876, 6-(3-((1H-pyrrol-1-yl)methyl)phenyl)-N-cyclopropylquinazoline-4-amine] as the molecule, how does the inhibition at 10 µM read?
**A.** 47%

**Q.** Which inhibition at 10 µM does the source give for CN(Cc1cccc(-c2ccc3ncnc(NC4CC4)c3c2)c1)c1ccccn1 [Example 878, N-cyclopropyl-6-(3-((methyl(pyridin-2-yl)amino)methyl)phenyl)quinazoline-4-amine] here?
**A.** 56%

**Q.** How did the inhibition at 10 µM turn out when O=C1CCC(=O)N1Cc1ccc(F)c(-c2ccc3ncnc(NC4CC4)c3c2)c1 [Example 895, 1-(3-(4-(cyclopropylamino)quinazolin-6-yl)-4-fluorobenzyl)pyrrolidine-2,5-dione] was run?
**A.** 72%

**Q.** How did the inhibition at 10 µM turn out when CC(=O)N(Cc1ccc(F)c(-c2ccc3ncnc(NC4CC4)c3c2)c1)C1CC1 [Example 896, N-cyclopropyl-N-(3-(4-(cyclopropylamino)quinazolin-6-yl)-4-fluorobenzyl)acetamide] was run?
**A.** 78%

**Q.** N#CCC(=O)N(Cc1ccc(F)c(-c2ccc3ncnc(NC4CC4)c3c2)c1)C1CC1 [Example 900, 2-cyano-N-cyclopropyl-N-(3-(4-(cyclopropylamino)quinazolin-6-yl)-4-fluorobenzyl)acetamide] was tested. Which inhibition at 10 µM did it give?
**A.** 81%

**Q.** Which inhibition at 10 µM does the source give for CN(c1ncnc2ccc(-c3cccc(CN4C(=O)CCC4=O)c3)cc12)C1CC1 [Example 901, 1-(3-(4-(cyclopropyl(methyl)amino)quinazolin-6-yl)benzyl)pyrrolidine-2,5-dione] here?
**A.** 40%

**Q.** Which inhibition at 10 µM does the source give for N#CCC(=O)N(Cc1cc(F)cc(-c2ccc3ncnc(NC4CC4)c3c2)c1)C1CC1 [Example 902, 2-cyano-N-cyclopropyl-N-(3-(4-(cyclopropylamino)quinazolin-6-yl)-5-fluorobenzyl)acetamide] here?
**A.** 92%

**Q.** CC(=O)N(Cc1nc(-c2ccc3ncnc(NC4CC4)c3c2)cs1)C1CC1 [Example 903, N-cyclopropyl-N-((4-(4-(cyclopropylamino)quinazolin-6-yl)thiazole-2-yl)methyl)acetamide] was tested. Which inhibition at 10 µM did it give?
**A.** 87%
